According to patent publication US20200165257A1, “INHIBITORS OF PHOSPHOINOSITIDE 3-KINASE AND HISTONE DEACETYLASE FOR TREATMENT OF CANCER” (THE UNITED STATES OF AMERICA, AS REPRESENTED BY THE …, priority 2017, published 2020):

How the values were obtained:
Assay type in all cases: biochemical
[1] = molecular target: T1, HDAC6 (Homo sapiens, UniProt Q9UBN7); assay: HDAC Fluorescent Activity Assay; settings: for IC50: symbols ++ / +, read-out: HDAC6 Inhibition Activity (IC50 class); for inhibition at 1 µM: symbols ** / *, read-out: HDAC6 Inhibition Activity (% Inhibition class)
T1 sequence (Q9UBN7 1-1215): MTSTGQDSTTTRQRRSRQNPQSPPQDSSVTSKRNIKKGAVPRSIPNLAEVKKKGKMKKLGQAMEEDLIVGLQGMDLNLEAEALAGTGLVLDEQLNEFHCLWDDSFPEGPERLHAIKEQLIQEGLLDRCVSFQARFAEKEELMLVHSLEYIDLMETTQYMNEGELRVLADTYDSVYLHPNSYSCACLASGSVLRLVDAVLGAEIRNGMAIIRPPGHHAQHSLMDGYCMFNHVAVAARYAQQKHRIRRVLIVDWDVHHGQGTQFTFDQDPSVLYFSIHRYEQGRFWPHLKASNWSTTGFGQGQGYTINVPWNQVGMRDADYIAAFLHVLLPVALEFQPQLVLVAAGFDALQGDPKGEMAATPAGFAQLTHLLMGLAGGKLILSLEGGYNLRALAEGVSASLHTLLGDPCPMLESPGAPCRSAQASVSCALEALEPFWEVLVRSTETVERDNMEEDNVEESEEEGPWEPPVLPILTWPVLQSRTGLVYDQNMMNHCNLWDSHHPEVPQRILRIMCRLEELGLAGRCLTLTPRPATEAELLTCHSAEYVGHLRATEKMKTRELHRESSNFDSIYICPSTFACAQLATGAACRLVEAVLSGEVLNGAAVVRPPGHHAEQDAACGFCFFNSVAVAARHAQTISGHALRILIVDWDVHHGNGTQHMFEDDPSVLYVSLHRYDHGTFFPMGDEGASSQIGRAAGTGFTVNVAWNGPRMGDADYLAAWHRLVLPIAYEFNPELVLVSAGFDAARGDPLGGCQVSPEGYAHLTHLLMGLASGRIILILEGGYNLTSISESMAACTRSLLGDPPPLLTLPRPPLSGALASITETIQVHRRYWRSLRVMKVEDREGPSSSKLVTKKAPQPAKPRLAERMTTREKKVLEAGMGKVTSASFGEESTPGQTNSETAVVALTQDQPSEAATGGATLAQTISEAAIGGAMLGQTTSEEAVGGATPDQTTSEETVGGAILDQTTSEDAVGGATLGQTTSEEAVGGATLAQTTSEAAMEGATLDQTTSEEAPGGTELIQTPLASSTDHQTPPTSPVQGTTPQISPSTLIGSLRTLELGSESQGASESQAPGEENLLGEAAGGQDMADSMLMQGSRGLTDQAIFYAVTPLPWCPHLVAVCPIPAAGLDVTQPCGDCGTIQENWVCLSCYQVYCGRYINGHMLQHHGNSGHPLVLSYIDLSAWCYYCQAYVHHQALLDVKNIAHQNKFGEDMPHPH
Experimental: This protocol is to determine the IC50s or percentage of inhibition values of the test compound against HDACs.
The HDAC Fluorescent Activity Assay is based on the unique Fluorogenic Substrate and Developer combination. […] First, the Fluorogenic Substrate, which comprises an acetylated lysine side chain, is incubated with a purified HDAC enzyme. Deacetylation of the substrate sensitizes the substrate so that, in the second step, treatment with the Developer produces a fluorophore.
Testing compounds were dissolved in 100% DMSO to specific concentration. […]
1. Deliver 2× enzyme in wells of reaction plate except No Enzyme control wells. Add buffer in No En wells.
2. Deliver compounds in 100% DMSO into the enzyme mixture by Acoustic technology (Echo550; nanoliter range). Spin down and pre-incubation.
3. Deliver 2× Substrate Mixture (Fluorogenic HDAC Substrate and co-factor if applicable) in all reaction wells to initiate the reaction. Spin and shake.
4. Incubate for 1-2 hr at 30° C. with seal.
5. Add Developer with Trichostatin A (or TMP269) to stop the reaction and to generate fluorescent color.
6. Fluorescence was read (excitatory, 360; emission, 460) using the EnVision Multilabel
7. Take endpoint reading for analysis after the development reaches plateau.
The percentages of enzyme activity (relative to DMSO controls) and IC50 values were calculated using the GraphPad Prism 4 program based on a sigmoidal dose-response equation.

[2] = molecular target: PI3Kδ (Homo sapiens, UniProt O00329); assay: PI3Kδ kinase assay (HTRF); settings: for IC50: symbols ++ / +, read-out: PI3Kδ Inhibition Activity (IC50 class); for inhibition at 1 µM: symbols ** / *, read-out: PI3Kδ Inhibition Activity (% Inhibition class)
Chain of PI3Kδ (O00329 whole entry): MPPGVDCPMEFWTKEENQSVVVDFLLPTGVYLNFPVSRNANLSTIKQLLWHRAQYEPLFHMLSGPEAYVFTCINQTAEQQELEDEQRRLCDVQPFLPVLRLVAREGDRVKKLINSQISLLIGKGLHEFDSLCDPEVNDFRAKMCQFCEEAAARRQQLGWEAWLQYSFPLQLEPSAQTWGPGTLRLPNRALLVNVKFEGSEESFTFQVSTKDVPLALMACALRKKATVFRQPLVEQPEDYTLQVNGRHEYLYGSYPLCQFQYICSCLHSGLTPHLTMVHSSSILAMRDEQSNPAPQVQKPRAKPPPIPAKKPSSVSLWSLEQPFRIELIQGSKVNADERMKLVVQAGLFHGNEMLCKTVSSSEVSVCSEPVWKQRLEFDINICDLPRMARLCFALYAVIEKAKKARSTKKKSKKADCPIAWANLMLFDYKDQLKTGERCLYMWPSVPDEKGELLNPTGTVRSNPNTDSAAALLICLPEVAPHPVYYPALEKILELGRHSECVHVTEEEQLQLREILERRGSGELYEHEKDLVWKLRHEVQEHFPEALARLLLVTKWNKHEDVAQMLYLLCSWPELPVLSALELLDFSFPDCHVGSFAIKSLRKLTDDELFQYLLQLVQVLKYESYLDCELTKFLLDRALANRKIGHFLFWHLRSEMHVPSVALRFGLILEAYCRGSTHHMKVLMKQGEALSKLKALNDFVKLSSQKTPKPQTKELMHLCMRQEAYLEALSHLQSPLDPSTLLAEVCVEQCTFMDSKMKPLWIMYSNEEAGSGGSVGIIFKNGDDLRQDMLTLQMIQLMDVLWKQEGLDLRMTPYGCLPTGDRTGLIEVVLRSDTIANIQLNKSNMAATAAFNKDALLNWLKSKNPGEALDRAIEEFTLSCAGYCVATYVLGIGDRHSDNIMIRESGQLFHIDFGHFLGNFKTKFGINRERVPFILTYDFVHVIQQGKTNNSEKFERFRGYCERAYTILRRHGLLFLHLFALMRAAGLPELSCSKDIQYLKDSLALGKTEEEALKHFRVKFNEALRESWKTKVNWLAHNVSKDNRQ
Chain of PI3Kδ (P27986 whole entry partner): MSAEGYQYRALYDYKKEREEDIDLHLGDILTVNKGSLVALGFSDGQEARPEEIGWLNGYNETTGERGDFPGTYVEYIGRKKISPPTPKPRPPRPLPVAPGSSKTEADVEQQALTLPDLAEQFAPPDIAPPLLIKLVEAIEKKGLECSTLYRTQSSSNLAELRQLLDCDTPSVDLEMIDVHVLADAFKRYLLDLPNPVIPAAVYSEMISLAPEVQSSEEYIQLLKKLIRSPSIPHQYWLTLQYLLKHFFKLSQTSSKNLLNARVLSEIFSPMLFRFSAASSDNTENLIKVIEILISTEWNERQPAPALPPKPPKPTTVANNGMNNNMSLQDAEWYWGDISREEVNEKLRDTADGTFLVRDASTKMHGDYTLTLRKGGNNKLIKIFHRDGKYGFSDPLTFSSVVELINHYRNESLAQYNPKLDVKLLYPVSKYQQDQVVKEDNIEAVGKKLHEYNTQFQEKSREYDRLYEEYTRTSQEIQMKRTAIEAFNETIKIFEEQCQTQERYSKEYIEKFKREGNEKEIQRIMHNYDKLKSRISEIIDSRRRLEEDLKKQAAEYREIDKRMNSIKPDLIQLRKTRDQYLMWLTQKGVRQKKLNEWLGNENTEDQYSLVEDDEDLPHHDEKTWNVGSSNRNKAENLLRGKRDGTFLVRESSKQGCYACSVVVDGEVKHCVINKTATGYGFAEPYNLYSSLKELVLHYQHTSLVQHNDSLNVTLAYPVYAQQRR
Experimental: (§1) The PIP3 product is detected by displacement of biotin-PIP3 from an energy transfer complex consisting of Europium labeled anti-GST monoclonal antibody, a GST-tagged pleckstrin homology (PH) domain, biotinylated PIP3 and Streptavidin-Allophycocyanin (APC). […] The PIP3 product formed by PI 3-Kinase(h) activity displaces biotin-PIP3 from the complex resulting in a loss of energy transfer, and thus, a decrease in signal.
(§2) First, the kinase reaction with PIP2 substrate is carried out in the presence of ATP, and the reaction is quenched with stop Solution, and then, finally detect by adding Detection Mixture followed by incubation.
(§3) HEPES 50 mM (pH7.0), NaN3 0.02%, BSA 0.01%, Orthovanadate 0.1 mM, 1% DMSO.
(§4) Detection buffer: HEPES 10 mM (pH7.0), BSA 0.02%, KF 0.16 M, EDTA 4 mM.
(§5) 10 μM PIP2 substrate (PI(4,5)P2)
(§6) 10 μM ATP under standard conditions
(§7) 1. Prepare substrate in freshly prepared Reaction Buffer.
(§8) 2. Deliver kinase into the substrate solution and gently mix.
(§9) 3. Deliver compounds in 100% DMSO into the kinase reaction mixture by Acoustic technology (Echo550; nanoliter range), incubate for 10 min at room temperature.
(§10) 4. Deliver ATP into the reaction mixture to initiate the reaction.
(§11) 5. Incubate for 30 min at 30° C.
(§12) 6. Quench the reaction with Stop Solution.
(§13) 7. Add Detection Mixture, and incubate for overnight.
(§14) The emission ratio is converted into μM PIP3 production based on PIP3 standard curves.
(§15) The nonlinear regression to obtain the standard curve and IC50 values are performed using Graphpad Prism software.

[3] = molecular target: PI3Kα (Homo sapiens, UniProt P42336); assay: PI3Kα kinase assay (HTRF)
Chain of PI3Kα (P42336 whole entry): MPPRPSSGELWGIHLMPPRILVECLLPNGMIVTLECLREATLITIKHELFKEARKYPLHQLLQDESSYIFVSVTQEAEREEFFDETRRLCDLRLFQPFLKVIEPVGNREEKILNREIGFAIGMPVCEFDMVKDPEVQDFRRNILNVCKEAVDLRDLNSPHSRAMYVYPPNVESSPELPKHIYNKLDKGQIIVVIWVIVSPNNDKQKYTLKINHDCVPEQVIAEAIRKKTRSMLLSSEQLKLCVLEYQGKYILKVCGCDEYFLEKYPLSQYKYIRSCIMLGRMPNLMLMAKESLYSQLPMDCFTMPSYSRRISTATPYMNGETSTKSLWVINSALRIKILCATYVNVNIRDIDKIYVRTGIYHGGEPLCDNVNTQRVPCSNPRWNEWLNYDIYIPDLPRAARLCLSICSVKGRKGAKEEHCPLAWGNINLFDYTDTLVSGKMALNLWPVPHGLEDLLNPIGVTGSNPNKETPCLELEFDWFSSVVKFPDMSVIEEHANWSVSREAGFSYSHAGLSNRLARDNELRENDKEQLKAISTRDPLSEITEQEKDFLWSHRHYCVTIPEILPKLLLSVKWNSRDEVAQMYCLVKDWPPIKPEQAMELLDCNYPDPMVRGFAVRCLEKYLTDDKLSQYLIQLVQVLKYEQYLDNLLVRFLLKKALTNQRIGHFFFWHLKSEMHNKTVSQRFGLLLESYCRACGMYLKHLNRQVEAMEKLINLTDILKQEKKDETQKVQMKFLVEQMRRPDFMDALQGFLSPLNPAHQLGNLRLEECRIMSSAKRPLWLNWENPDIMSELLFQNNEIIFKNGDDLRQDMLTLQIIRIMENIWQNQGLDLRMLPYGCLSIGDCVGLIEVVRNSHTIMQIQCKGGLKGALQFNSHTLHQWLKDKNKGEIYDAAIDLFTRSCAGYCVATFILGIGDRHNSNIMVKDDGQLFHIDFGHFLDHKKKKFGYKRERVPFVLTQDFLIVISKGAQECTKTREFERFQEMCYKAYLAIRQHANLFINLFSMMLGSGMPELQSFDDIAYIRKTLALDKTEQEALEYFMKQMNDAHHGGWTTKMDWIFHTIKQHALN
Chain of PI3Kα (P27986 whole entry partner): as the sequence (P27986 whole entry partner) above
Experimental: as §1, §2, §3, §4, §5, §6, §7, §8, §9, §10, §11, §12, §13, §14, §15

[4] = molecular target: PI3Kβ (Homo sapiens, UniProt P42338); assay: PI3Kβ kinase assay (HTRF)
Chain of PI3Kβ (P42338 whole entry): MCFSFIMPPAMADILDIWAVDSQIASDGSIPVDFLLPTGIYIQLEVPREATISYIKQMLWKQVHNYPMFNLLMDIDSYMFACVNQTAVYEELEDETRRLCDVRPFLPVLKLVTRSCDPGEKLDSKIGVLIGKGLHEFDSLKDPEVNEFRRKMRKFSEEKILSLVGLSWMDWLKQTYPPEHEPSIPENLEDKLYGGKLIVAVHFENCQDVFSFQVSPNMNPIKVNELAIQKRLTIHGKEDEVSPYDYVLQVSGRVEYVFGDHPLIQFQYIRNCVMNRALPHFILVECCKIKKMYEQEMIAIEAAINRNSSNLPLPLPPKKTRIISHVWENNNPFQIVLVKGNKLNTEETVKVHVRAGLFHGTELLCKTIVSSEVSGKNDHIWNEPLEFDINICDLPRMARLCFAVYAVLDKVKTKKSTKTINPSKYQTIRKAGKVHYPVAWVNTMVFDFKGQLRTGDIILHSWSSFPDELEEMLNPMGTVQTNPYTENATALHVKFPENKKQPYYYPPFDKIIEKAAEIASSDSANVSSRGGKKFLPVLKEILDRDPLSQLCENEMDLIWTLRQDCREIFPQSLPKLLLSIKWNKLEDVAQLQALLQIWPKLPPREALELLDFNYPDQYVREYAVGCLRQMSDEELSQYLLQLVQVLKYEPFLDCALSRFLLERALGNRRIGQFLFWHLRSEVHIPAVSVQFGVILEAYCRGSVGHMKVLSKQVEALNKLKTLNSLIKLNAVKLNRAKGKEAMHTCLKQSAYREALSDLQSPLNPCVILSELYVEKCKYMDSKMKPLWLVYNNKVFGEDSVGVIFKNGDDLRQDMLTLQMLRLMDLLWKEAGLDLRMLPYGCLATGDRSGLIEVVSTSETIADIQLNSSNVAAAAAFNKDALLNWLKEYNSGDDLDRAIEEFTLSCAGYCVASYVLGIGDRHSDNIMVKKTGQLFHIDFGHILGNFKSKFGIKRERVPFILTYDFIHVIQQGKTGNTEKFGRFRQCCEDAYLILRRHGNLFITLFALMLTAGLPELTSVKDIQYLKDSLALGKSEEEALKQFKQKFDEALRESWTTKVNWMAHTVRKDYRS
Chain of PI3Kβ (P27986 whole entry partner): as the sequence (P27986 whole entry partner) above
Experimental: as §1, §2, §3, §4, §5, §6, §7, §8, §9, §10, §11, §12, §13, §14, §15

[5] = molecular target: PI3Kγ (Homo sapiens, UniProt P48736); assay: PI3Kγ kinase assay (HTRF)
Chain of PI3Kγ (P48736 whole entry): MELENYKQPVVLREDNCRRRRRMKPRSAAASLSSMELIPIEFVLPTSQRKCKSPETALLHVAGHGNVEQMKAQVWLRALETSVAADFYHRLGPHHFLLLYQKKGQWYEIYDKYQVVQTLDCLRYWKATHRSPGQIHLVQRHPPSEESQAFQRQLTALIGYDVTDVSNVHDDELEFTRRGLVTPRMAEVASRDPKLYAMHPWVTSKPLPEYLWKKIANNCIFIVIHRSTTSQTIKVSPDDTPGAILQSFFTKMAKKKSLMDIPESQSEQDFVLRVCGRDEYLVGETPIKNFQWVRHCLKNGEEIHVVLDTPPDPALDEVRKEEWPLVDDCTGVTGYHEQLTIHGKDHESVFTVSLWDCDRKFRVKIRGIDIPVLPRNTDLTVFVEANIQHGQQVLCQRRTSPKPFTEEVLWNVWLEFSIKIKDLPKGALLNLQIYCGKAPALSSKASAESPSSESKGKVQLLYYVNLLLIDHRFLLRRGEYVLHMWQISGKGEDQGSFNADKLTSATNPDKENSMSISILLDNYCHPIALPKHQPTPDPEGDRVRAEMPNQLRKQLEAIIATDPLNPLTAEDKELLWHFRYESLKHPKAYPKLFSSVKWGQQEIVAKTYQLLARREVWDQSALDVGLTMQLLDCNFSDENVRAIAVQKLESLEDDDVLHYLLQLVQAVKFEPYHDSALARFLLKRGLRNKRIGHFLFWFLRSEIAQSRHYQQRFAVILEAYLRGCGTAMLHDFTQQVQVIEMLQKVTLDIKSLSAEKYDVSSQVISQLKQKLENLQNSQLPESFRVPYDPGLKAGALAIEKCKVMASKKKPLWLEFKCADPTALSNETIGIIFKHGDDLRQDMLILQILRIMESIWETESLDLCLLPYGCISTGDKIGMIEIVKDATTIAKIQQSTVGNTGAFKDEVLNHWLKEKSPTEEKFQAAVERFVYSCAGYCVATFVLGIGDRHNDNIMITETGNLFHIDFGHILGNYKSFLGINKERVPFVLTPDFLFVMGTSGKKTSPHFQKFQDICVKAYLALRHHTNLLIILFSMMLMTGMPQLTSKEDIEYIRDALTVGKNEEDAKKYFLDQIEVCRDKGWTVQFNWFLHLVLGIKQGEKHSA
Experimental: as §1, §2, §3, §4, §5, §6, §7, §8, §9, §10, §11, §12, §13, §14, §15

| Structure (SMILES) | IC50 [1] [nM] | IC50 [2] [nM] | inhibition at 1 µM [1] [%] | inhibition at 1 µM [3] [%] | inhibition at 1 µM [4] [%] | inhibition at 1 µM [2] [%] | inhibition at 1 µM [5] [%] |
| --- | --- | --- | --- | --- | --- | --- | --- |
| CC[C@H](Nc1nc(N)nc(C)c1C#N)c1nc2cccc(N3CCC(CCC(=O)NO)CC3)c2c(=O)n1-c1ccccc1 [Compound L, (S)-3-(1-(2-(1-((2-amino-5-cyano-6-methylpyrimidin-4-yl)amino)propyl)-4-oxo-3-phenyl-3,4-dihydroquinazolin-5-yl)piperidin-4-yl)-N-hydroxypropanamide] | < 100 | < 100 |  |  |  |  |  |
| CC[C@H](Nc1nc(N)nc(C)c1C#N)c1nc2cccc(N(C)Cc3ccc(C(=O)NO)cc3)c2c(=O)n1-c1ccccc1 [LI, (S)-4-(((2-(1-((2-amino-5-cyano-6-methylpyrimidin-4-yl)amino)propyl)-4-oxo-3-phenyl-3,4-dihydroquinazolin-5-yl)(methyl)amino)methyl)-N-hydroxybenzamide] | < 100 | < 100 |  |  |  |  |  |
| CC[C@H](Nc1nc(N)nc(C)c1C#N)c1nc2cccc(C#CCCCC(=O)NO)c2c(=O)n1-c1ccccc1 [LVI, (S)-6-(2-(1-((2-amino-5-cyano-6-methylpyrimidin-4-yl)amino)propyl)-4-oxo-3-phenyl-3,4-dihydroquinazolin-5-yl)-N-hydroxyhex-5-ynamide] |  | < 100 | > 90 |  |  |  |  |
| CC[C@H](Nc1ncnc(N)c1C(N)=O)c1nc2cccc(NCc3ccc(C(=O)NO)cn3)c2c(=O)n1-c1ccccc1 [LVII, (S)-4-amino-6-((1-(5-(((5-(hydroxycarbamoyl)pyridin-2-yl)methyl)amino)-4-oxo-3-phenyl-3,4-dihydroquinazolin-2-yl)propyl)amino)pyrimidine-5-carboxamide] | < 100 | > 100 |  |  |  |  |  |
| O=C(NO)c1ccc(CNc2cccc3nc(C4CC4)n(-c4ccccc4)c(=O)c23)cc1 [LXI, 4-(((2-cyclopropyl-4-oxo-3-phenyl-3,4-dihydroquinazolin-5-yl)amino)methyl)-N-hydroxybenzamide] | < 100 |  |  |  |  |  |  |
| Cc1nc2cccc(NCCCCC(=O)NO)c2c(=O)n1-c1ccccc1 [LXII, N-hydroxy-5-((2-methyl-4-oxo-3-phenyl-3,4-dihydroquinazolin-5-yl)amino)pentanamide] | > 100 |  |  |  |  |  |  |
| O=C(CCCCNc1cccc2nc(C3CC3)n(-c3ccccc3)c(=O)c12)NO [LXIII, 5-((2-cyclopropyl-4-oxo-3-phenyl-3,4-dihydroquinazolin-5-yl)amino)-N-hydroxypentanamide] | > 100 |  |  |  |  |  |  |
| CC[C@H](Nc1ncnc2[nH]cnc12)c1nc2cccc(-c3cnc(C(=O)NO)nc3)c2c(=O)n1-c1ccccc1 [XXII, (S)-5-(2-(1-((9H-purin-6-yl)amino)propyl)-4-oxo-3-phenyl-3,4-dihydroquinazolin-5-yl)-N-hydroxypyrimidine-2-carboxamide] |  |  | < 90 | < 85 | < 85 | > 90 | < 85 |
| CC[C@H](Nc1ncnc2[nH]cnc12)c1nc2cccc(CC(=O)c3ccc(C(=O)Nc4ccccc4N)cc3)c2c(=O)n1-c1ccccc1 [XXIII, (S)-4-(2-(2-(1-((9H-purin-6-yl)amino)propyl)-4-oxo-3-phenyl-3,4-dihydroquinazolin-5-yl)acetyl)-N-(2-aminophenyl)benzamide] |  |  | < 90 | < 85 | < 85 | > 90 | < 85 |
| CC[C@H](Nc1ncnc2[nH]cnc12)c1nc2cccc(CNC(=O)c3cccc(B(O)O)c3)c2c(=O)n1-c1ccccc1 [XXV, (S)-(3-(((2-(1-((9H-purin-6-yl)amino)propyl)-4-oxo-3-phenyl-3,4-dihydroquinazolin-5-yl)methyl)carbamoyl)phenyl)boronic acid] |  |  | < 90 | < 85 | < 85 | > 90 | < 85 |
| CC[C@H](Nc1ncnc2[nH]cnc12)c1nc2cccc(NCc3ccc(C(=O)N(C)O)cc3)c2c(=O)n1-c1ccccc1 [XXVII, (S)-4-(((2-(1-((9H-purin-6-yl)amino)propyl)-4-oxo-3-phenyl-3,4-dihydroquinazolin-5-yl)amino)methyl)-N-hydroxy-N-methylbenzamide] | > 100 |  |  |  |  |  |  |
| CC[C@H](Nc1ncnc2[nH]cnc12)c1nc(NCCCCCC(=O)NO)c2ccccc2n1 [XXXI, (S)-6-((2-(1-((9H-purin-6-yl)amino)propyl)quinazolin-4-yl)amino)-N-hydroxyhexanamide] | < 100 | > 100 |  |  |  |  |  |
| CC[C@H](Nc1ncnc2[nH]cnc12)c1nc(N2CCN(c3nc(C(=O)NO)cs3)CC2)c2ccccc2n1 [XXXII, (S)-2-(4-(2-(1-((9H-purin-6-yl)amino)propyl)quinazolin-4-yl)piperazin-1-yl)-N-hydroxythiazole-4-carboxamide] |  |  | < 90 | < 85 | < 85 | < 90 | < 85 |
| CC[C@H](Nc1ncnc2[nH]cnc12)c1nc(N2CCN(c3nc(C(=O)NO)co3)CC2)c2ccccc2n1 [XXXIII, (S)-2-(4-(2-(1-((9H-purin-6-yl)amino)propyl)quinazolin-4-yl)piperazin-1-yl)-N-hydroxyoxazole-4-carboxamide] |  |  | > 90 | < 85 | < 85 | < 90 | < 85 |
| CC[C@H](Nc1ncnc2[nH]cnc12)c1nc(-c2ccc(C(=O)NO)cc2)c2ccccc2n1 [XXXIV, (S)-4-(2-(1-((9H-purin-6-yl)amino)propyl)quinazolin-4-yl)-N-hydroxybenzamide] |  |  | > 90 | < 85 | < 85 | < 90 | < 85 |
